Results taken from ChEMBL document CHEMBL3871282, “Neo-tanshinlactone D-ring modified novel analogues induce apoptosis in human breast cancer cell via DNA damage” (Bioorg Med Chem, 2017).
Active and inactive are the calls of the source. No cut-off for these calls is given here.

How the values were obtained:
[1] = system: MCF7; assay: Induction of DNA damage-mediated apoptosis in human MCF7 cells assessed as Rb hypo-phosphorylation after 24 hrs by immunoblot analysis; format: cell-based
[2] = Cytotoxicity against human HepG2 cells assessed as cell growth inhibition after 24 hrs by MTT assay; format: functional, cell-based; conditions: HepG2, 24 h
[3] = species: Bos taurus; assay: Binding affinity to calf thymus DNA assessed as DNA positive band formation at 1:1 compound to DNA ratio by circular dichroism method
[4] = system: MCF7; assay: Induction of apoptosis in human MCF7 cells at IC50 after 24 hrs by Annexin V/7AAD-dual staining based fluorescent microscopic analysis; format: functional
[5] = system: MCF7; assay: Induction of apoptosis in human MCF7 cells assessed as early apoptotic cells at 8 nM after 24 hrs by Annexin V-FITC/propidium iodide-dual staining based FACS analysis (reference value: 2.3%); format: functional
[6] = system: MCF7; assay: Induction of DNA damage-mediated apoptosis in human MCF7 cells assessed as activation of p38 at 12 nM up to 4 hrs by immunoblot analysis; format: cell-based
[7] = Cytotoxicity against human HeLa cells assessed as cell growth inhibition after 24 hrs by MTT assay; format: functional, cell-based
[8] = system: Escherichia coli; assay: Induction of Escherichia coli supercoiled pBR322 DNA cleavage assessed as increase in open circular form of DNA band after 3 hrs by ethidium bromide staining based agarose gel electrophoresis method
[9] = Cytotoxicity against human HCT116 cells assessed as cell growth inhibition after 24 hrs by MTT assay; format: functional, cell-based; conditions: HCT-116, 24 h
[10] = system: MCF7; assay: Induction of DNA double strand breaks in human MCF7 cells assessed as increase in H2AX to gamma-H2AX ratio at near IC50 after 24 hrs by DAPI staining-based immunocytochemistry analysis relative to control; format: cell-based
[11] = species: Bos taurus; assay: Inhibition of DAPI binding to calf thymus DNA at 10 to 50 uM measured at 460 nm by fluorescence spectroscopic method
[12] = species: Bos taurus; assay: Binding affinity to calf thymus DNA assessed hyperchromic shift at 260 nm up to 1:1 compound to DNA ratio measured by UV-Vis spectrophotometric analysis
[13] = system: MCF7; assay: Binding affinity to DNA in human MCF7 cells assessed as formation of DNA double strand breaks after 24 hrs by alkaline comet assay; format: cell-based
[14] = Cytotoxicity against human MDA-MB-231 ER negative, PR negative,HER2 negative cells assessed as cell growth inhibition after 24 hrs by MTT assay; format: functional, cell-based; conditions: MDA-MB-231, 24 h
[15] = system: MCF7; assay: Induction of DNA damage-mediated apoptosis in human MCF7 cells assessed as increase in HDAC3 expression in cytoplasmic fraction at 8 to 16 nM after 24 hrs by immunoblot analysis; format: cell-based
[16] = Cell cycle arrest in human MCF7 cells assessed as G2/M phase at 12 nM after 24 hrs by propidium iodide staining based FACS analysis (reference value: 28.3%); format: functional
[17] = system: MCF7; assay: Induction of apoptosis in human MCF7 cells assessed as late apoptotic cells at 12 nM after 24 hrs by Annexin V-FITC/propidium iodide-dual staining based FACS analysis (reference value: 0.1%); format: functional
[18] = system: MCF7; assay: Binding affinity to DNA in human MCF7 cells assessed as formation of DNA double strand breaks after 24 hrs by neutral comet assay; format: cell-based
[19] = system: MCF7; assay: Induction of DNA double strand breaks in human MCF7 cells assessed as gamma-H2AX foci at near IC50 after 24 hrs by DAPI staining based immunofluorescence assay; format: cell-based
[20] = system: MCF7; assay: Induction of apoptosis in human MCF7 cells assessed as early apoptotic cells at 16 nM after 24 hrs by Annexin V-FITC/propidium iodide-dual staining based FACS analysis (reference value: 2.3%); format: functional
[21] = Cytotoxicity against human WI38 cells assessed as cell growth inhibition after 24 hrs by MTT assay; format: toxicity, cell-based, WI-38
[22] = system: MCF7; assay: Induction of DNA double strand breaks in human MCF7 cells assessed as increase in H2AX to gamma-H2AX ratio after 24 hrs by Western blot analysis; format: cell-based
[23] = system: MCF7; assay: Induction of DNA double strand breaks in human MCF7 cells assessed as increase in H2AX to gamma-H2AX ratio at near IC50 after 24 hrs by Western blot analysis relative to control; format: cell-based
[24] = system: MCF7; assay: Induction of DNA damage-mediated apoptosis in human MCF7 cells assessed as phosphorylation of p53 at Ser-15 residue after 24 hrs by DAPI staining based immunocytochemistry analysis; format: cell-based
[25] = system: MCF7; assay: Induction of DNA double strand breaks in human MCF7 cells assessed as increase in apoptotic nuclei after 24 hrs by TUNEL assay; format: cell-based
[26] = system: MCF7; assay: Induction of DNA damage-mediated apoptosis in human MCF7 cells assessed as decrease in HDAC2 levels in nuclear fraction at 8 to 16 nM after 24 hrs by immunoblot analysis; format: cell-based
[27] = system: MCF7; assay: Antiproliferative activity against human MCF7 cells assessed as reduction in colony formation at 8 to 16 nM after 21 days by crystal violet staining based clonogenic assay; format: functional, cell-based
[28] = system: MCF7; assay: Induction of DNA damage-mediated apoptosis in human MCF7 cells assessed as downregulation of HDAC1 after 24 hrs by DAPI staining based immunocytochemistry analysis; format: cell-based
[29] = system: MCF7; assay: Induction of DNA damage-mediated apoptosis in human MCF7 cells assessed as decrease in HDAC1 expression in cytoplasmic fraction at 8 to 16 nM after 24 hrs by immunoblot analysis; format: cell-based
[30] = Induction of DNA damage-mediated apoptosis in human MCF7 cells assessed as upregulation of cytochrome c after 24 hrs by immunoblot analysis; format: cell-based
[31] = system: MCF7; assay: Induction of DNA damage-mediated apoptosis in human MCF7 cells assessed as downregulation of HDAC2 after 24 hrs by DAPI staining based immunocytochemistry analysis; format: cell-based
[32] = system: MCF7; assay: Induction of DNA damage-mediated apoptosis in human MCF7 cells assessed as increase in E2F1 expression in nuclear fraction after 24 hrs by immunoblot analysis; format: cell-based
[33] = Cell cycle arrest in human MCF7 cells assessed as S phase at 8 nM after 24 hrs by propidium iodide staining based FACS analysis (reference value: 27.5%); format: functional
[34] = system: MCF7; assay: Induction of DNA damage-mediated apoptosis in human MCF7 cells assessed as deactivation of Akt at 12 nM after 2 hrs by immunoblot analysis; format: cell-based
[35] = system: MCF7; assay: Induction of DNA damage-mediated apoptosis in human MCF7 cells assessed as cleavage of caspase-3 after 24 hrs by immunoblot analysis; format: cell-based
[36] = system: MCF7; assay: Induction of apoptosis in human MCF7 cells assessed as late apoptotic cells at 16 nM after 24 hrs by Annexin V-FITC/propidium iodide-dual staining based FACS analysis (reference value: 0.1%); format: functional
[37] = system: MCF7; assay: Induction of DNA double strand breaks in human MCF7 cells assessed as activation of phosphorylated ATM at ser1981 residue after 24 hrs immunoblot analysis; format: cell-based
[38] = system: MCF7; assay: Induction of DNA double strand breaks in human MCF7 cells assessed as activation of phosphorylated p53 at ser15 residue after 24 hrs immunoblot analysis; format: cell-based
[39] = system: MCF7; assay: Induction of DNA damage-mediated apoptosis in human MCF7 cells assessed as decrease in HDAC3 expression in nuclear fraction at 8 to 16 nM after 24 hrs by immunoblot analysis; format: cell-based

**Q.** For `O=c1cc(OCc2ccccc2)c2ccc3ccccc3c2[nH]1`, which Activity [1] is on record?
**A.** The Activity was “Dose-dependent effect”.

**Q.** And the IC50 [2]?
**A.** Its IC50 is 37 µM.

**Q.** And the Activity [3]?
**A.** The Activity was “Active”.

**Q.** What about the Activity [4] of the same molecule?
**A.** Its Activity is 44.78%.

**Q.** And the Activity [5]?
**A.** The Activity was 10.9%.

**Q.** And the Activity [6]?
**A.** Its Activity is “Active”.

**Q.** What about the IC50 [7] of the same molecule?
**A.** Its IC50 is 52.1 µM.

**Q.** What about the Activity [8] of the same molecule?
**A.** The Activity was “Dose-dependent effect”.

**Q.** And the IC50 [9]?
**A.** Its IC50 is 0.0441 µM.

**Q.** And the fold change (FC) [10]?
**A.** Its fold change (FC) is 11.

**Q.** What about the inhibition [11] of the same molecule?
**A.** The inhibition was “Active”.

**Q.** And the Activity [12]?
**A.** The Activity was “Active”.

**Q.** What about the Activity [13] of the same molecule?
**A.** The Activity was “Dose-dependent effect”.

**Q.** What about the IC50 [14] of the same molecule?
**A.** The IC50 was 0.0629 µM.

**Q.** And the Activity [15]?
**A.** Its Activity is “Active”.

**Q.** And the Activity [16]?
**A.** Its Activity is 16.2%.

**Q.** And the Activity [17]?
**A.** Its Activity is 5.8%.

**Q.** And the Activity [18]?
**A.** The Activity was “Dose-dependent effect”.

**Q.** And the Activity [19]?
**A.** Its Activity is 29.9%.

**Q.** And the Activity [20]?
**A.** The Activity was 43.5%.

**Q.** And the IC50 at 24 h [21]?
**A.** The IC50 at 24 h was > 100 µM.

**Q.** And the Activity [22]?
**A.** The Activity was “Dose-dependent effect”.

**Q.** And the fold change (FC) [23]?
**A.** Its fold change (FC) is 6.3.

**Q.** And the Activity [24]?
**A.** The Activity was “Dose-dependent effect”.

**Q.** And the Activity [25]?
**A.** The Activity was “Dose-dependent effect”.

**Q.** What about the Activity [26] of the same molecule?
**A.** Its Activity is “Active”.

**Q.** What about the Activity [27] of the same molecule?
**A.** Its Activity is “Active”.

**Q.** And the Activity [28]?
**A.** Its Activity is “Dose-dependent effect”.

**Q.** What about the Activity [29] of the same molecule?
**A.** Its Activity is “Active”.

**Q.** What about the Activity [30] of the same molecule?
**A.** The Activity was “Dose-dependent effect”.

**Q.** What about the Activity [31] of the same molecule?
**A.** The Activity was “Dose-dependent effect”.

**Q.** And the Activity [32]?
**A.** Its Activity is “Active”.

**Q.** And the Activity [33]?
**A.** The Activity was 25.8%.

**Q.** And the Activity [34]?
**A.** The Activity was “Active”.

**Q.** What about the Activity [35] of the same molecule?
**A.** The Activity was “Dose-dependent effect”.

**Q.** And the Activity [36]?
**A.** The Activity was 5.6%.

**Q.** What about the Activity [37] of the same molecule?
**A.** The Activity was “Dose-dependent effect”.

**Q.** What about the Activity [38] of the same molecule?
**A.** Its Activity is “Dose-dependent effect”.

**Q.** What about the Activity [39] of the same molecule?
**A.** The Activity was “Active”.
